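Cells were grown in 96-well plates and exposed to each compound for 48 hours at five concentrations; endpoints were interpolated linearly between bracketing concentrations, or set to the highest concentration if not reached. The concentration for full growth arrest is given as TGI.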
What was measured:
Assay in all cases: inhibition of tumour cell growth, NCI panel, 48 h
[1] = system: 786-0 renal
[2] = system: A498 renal
[3] = system: A549 NSCLC
[4] = system: ACHN renal
[5] = system: BT-549 breast
[6] = system: CAKI-1 renal
[7] = system: COLO 205 colon
[8] = system: DU-145 prostate
[9] = system: EKVX NSCLC
[10] = system: HCC-2998 colon
[11] = system: HCT-116 colon
[12] = system: HCT-15 colon
[13] = system: HL-60(TB) leukemia
[14] = system: HOP-62 NSCLC
[15] = system: HOP-92 NSCLC
[16] = system: HS 578T breast
[17] = system: HT29 colon
[18] = system: IGROV1 ovarian
[19] = system: K-562 leukemia
[20] = system: KM12 colon
[21] = system: LOX IMVI melanoma
[22] = system: M14 melanoma
[23] = system: MALME-3M melanoma
[24] = system: MCF7 breast
[25] = system: MDA-MB-231 breast
[26] = system: MDA-MB-435
[27] = system: MDA-N
[28] = system: MOLT-4 leukemia
[29] = system: NCI-H226 lung
[30] = system: NCI-H460 lung
[31] = system: NCI-H522 lung
[32] = system: NCI/ADR-RES ovarian
[33] = system: OVCAR-3 ovarian
[34] = system: OVCAR-4 ovarian
[35] = system: OVCAR-5 ovarian
[36] = system: OVCAR-8 ovarian
[37] = system: PC-3 prostate
[38] = system: RPMI-8226 leukemia
[39] = system: RXF 393 renal
[40] = system: SF-268 CNS
[41] = system: SF-295 CNS
[42] = system: SF-539 CNS
[43] = system: SK-MEL-2 melanoma
[44] = system: SK-MEL-28 melanoma
[45] = system: SK-MEL-5 melanoma
[46] = system: SK-OV-3 ovarian
[47] = system: SN12C renal
[48] = system: SNB-19 CNS
[49] = system: SNB-75 CNS
[50] = system: SR leukemia
[51] = system: SW-620 colon
[52] = system: T-47D breast
[53] = system: TK-10 renal
[54] = system: U251 CNS
[55] = system: UACC-257 melanoma
[56] = system: UACC-62 melanoma
[57] = system: UO-31 renal
[58] = system: CCRF-CEM leukemia
[59] = system: NCI-H23 lung

Clc1ccc(Cc2nc3cc(Cl)c(Cl)cc3n2CC2CCCN3CCCCC23)cc1 (centres undefined)
TGI [1]: 23.5 µM
TGI [2]: 27.5 µM
TGI [3]: 26.2 µM
TGI [4]: 22.2 µM
TGI [5]: 26.1 µM
TGI [6]: 34.1 µM
TGI [7]: 22.3 µM
TGI [8]: 26.2 µM
TGI [9]: 23 µM
TGI [10]: 14.6 µM
TGI [11]: 21.8 µM
TGI [12]: 23.3 µM
TGI [13]: 25.4 µM
TGI [14]: 40.8 µM
TGI [15]: 24.9 µM
TGI [16]: 26.5 µM
TGI [17]: 13.1 µM
TGI [18]: 21 µM
TGI [19]: > 100 µM
TGI [20]: 40 µM
TGI [21]: 19.4 µM
TGI [22]: 7.95 µM
TGI [23]: 20.9 µM
TGI [24]: 28.3 µM
TGI [25]: 19.3 µM
TGI [26]: 40.4 µM
TGI [27]: 24.2 µM
TGI [28]: > 100 µM
TGI [29]: 38 µM
TGI [30]: 23.2 µM
TGI [31]: 24.6 µM
TGI [32]: 27.3 µM
TGI [33]: 28.5 µM
TGI [34]: 79.4 µM
TGI [35]: 26 µM
TGI [36]: 26.1 µM
TGI [37]: 21.1 µM
TGI [38]: > 100 µM
TGI [39]: 37.6 µM
TGI [40]: 22.3 µM
TGI [41]: 29.2 µM
TGI [42]: 22.3 µM
TGI [43]: 29.8 µM
TGI [44]: 20.8 µM
TGI [45]: 23.3 µM
TGI [46]: 32.8 µM
TGI [47]: 25.4 µM
TGI [48]: 27.1 µM
TGI [49]: 21.6 µM
TGI [50]: 15.1 µM
TGI [51]: 31.3 µM
TGI [52]: 64.6 µM
TGI [53]: 27.7 µM
TGI [54]: 20.8 µM
TGI [55]: 13 µM
TGI [56]: 21.2 µM
TGI [57]: 1.6 µM

O=C(OC1C#CCSCC#C/C=C\1)c1ccc2c(c1)C(=O)c1ccccc1C2=O (centres undefined)
TGI [2]: > 100 µM
TGI [3]: > 100 µM
TGI [4]: > 100 µM
TGI [5]: 54.1 µM
TGI [6]: > 100 µM
TGI [58]: > 100 µM
TGI [7]: > 100 µM
TGI [8]: > 100 µM
TGI [9]: > 100 µM
TGI [10]: > 100 µM
TGI [11]: > 100 µM
TGI [12]: > 100 µM
TGI [13]: > 100 µM
TGI [14]: 42.8 µM
TGI [15]: 13.7 µM
TGI [16]: > 100 µM
TGI [17]: > 100 µM
TGI [18]: > 100 µM
TGI [19]: > 100 µM
TGI [20]: > 100 µM
TGI [21]: > 100 µM
TGI [22]: > 100 µM
TGI [23]: > 100 µM
TGI [24]: > 100 µM
TGI [25]: 82.4 µM
TGI [26]: > 100 µM
TGI [27]: > 100 µM
TGI [28]: > 100 µM
TGI [29]: > 100 µM
TGI [59]: > 100 µM
TGI [30]: > 100 µM
TGI [31]: 62.7 µM
TGI [32]: > 100 µM
TGI [33]: > 100 µM
TGI [34]: > 100 µM
TGI [35]: > 100 µM
TGI [36]: > 100 µM
TGI [37]: > 100 µM
TGI [38]: > 100 µM
TGI [39]: 47.1 µM
TGI [40]: 69.1 µM
TGI [41]: > 100 µM
TGI [42]: 40.7 µM
TGI [43]: > 100 µM
TGI [44]: > 100 µM
TGI [45]: > 100 µM
TGI [46]: 70.6 µM
TGI [47]: > 100 µM
TGI [48]: 59.7 µM
TGI [49]: > 100 µM
TGI [50]: > 100 µM
TGI [51]: > 100 µM
TGI [52]: > 100 µM
TGI [53]: 80.6 µM
TGI [54]: 55.9 µM
TGI [55]: > 100 µM
TGI [56]: 34.2 µM
TGI [57]: > 100 µM

CCOC(=O)c1cccc(N=NNc2cccc(C(=O)OCC)c2)c1
TGI [1]: 42.6 µM
TGI [2]: 86.1 µM
TGI [3]: > 100 µM
TGI [4]: > 100 µM
TGI [5]: > 100 µM
TGI [6]: > 100 µM
TGI [58]: > 100 µM
TGI [7]: > 100 µM
TGI [8]: > 100 µM
TGI [9]: > 100 µM
TGI [10]: > 100 µM
TGI [11]: > 100 µM
TGI [12]: > 100 µM
TGI [13]: > 100 µM
TGI [14]: 32.4 µM
TGI [15]: 46.8 µM
TGI [16]: 77.3 µM
TGI [17]: > 100 µM
TGI [18]: > 100 µM
TGI [19]: > 100 µM
TGI [20]: > 100 µM
TGI [21]: > 100 µM
TGI [22]: > 100 µM
TGI [23]: > 100 µM
TGI [24]: > 100 µM
TGI [25]: 53.3 µM
TGI [26]: > 100 µM
TGI [27]: > 100 µM
TGI [28]: > 100 µM
TGI [29]: > 100 µM
TGI [59]: > 100 µM
TGI [30]: > 100 µM
TGI [31]: 84.3 µM
TGI [32]: > 100 µM
TGI [33]: 93.9 µM
TGI [34]: 63 µM
TGI [35]: > 100 µM
TGI [36]: 91.8 µM
TGI [37]: > 100 µM
TGI [38]: > 100 µM
TGI [39]: 62.9 µM
TGI [40]: 80.8 µM
TGI [41]: 45.4 µM
TGI [42]: 36.6 µM
TGI [43]: > 100 µM
TGI [44]: > 100 µM
TGI [45]: > 100 µM
TGI [46]: 93.4 µM
TGI [47]: 73.5 µM
TGI [48]: 46.2 µM
TGI [49]: 36.9 µM
TGI [50]: > 100 µM
TGI [51]: > 100 µM
TGI [52]: > 100 µM
TGI [53]: > 100 µM
TGI [54]: 46.6 µM
TGI [55]: > 100 µM
TGI [56]: > 100 µM
TGI [57]: 45.6 µM
